Data reported in patent US8476197B2, “Aminopropenoates as fungicides” (priority 2009, dated 2013).
Like-named read-outs stand apart in the source and are kept apart here. Marks after values point to notes of the source that are not given here.

Row | SMILES | Log P (pH 2.7) | also measured
1 | COC(=O)C(C#N)=C(NC1CC(C(F)(F)F)CC(C(F)(F)F)C1)c1cccnc1Cl (centres unmarked) [Compound 1071] | 3.42^[a] | –
2 | CCOC(=O)C(C#N)=C(NC1CC(C)C1)c1cccnc1Cl (centres unmarked) [Compound 1073] | 3.3^[a] | –
3 | COC(=O)C(C#N)=C(NC1CCCC(C)C1)c1cccnc1Cl (centres unmarked) [Compound 1074] | 3.37^[a] | –
4 | COC(=O)C(C#N)=C(NC1CCC(C(F)(F)F)CC1)c1cccnc1Cl (centres unmarked) [Compound 1075] | 3.04^[a] | –
5 | COC(=O)C(C#N)=C(NC1CCC(C)CC1)c1cccnc1Cl (centres unmarked) [Compound 1076] | 3.37^[a] | –
6 | COC(=O)C(C#N)=C(NC1CCC(C(C)(C)C)CC1)c1cccnc1Cl (centres unmarked) [Compound 1077] | 4.51^[a] | –
7 | COC(=O)C(C#N)=C(NC1CCc2ccccc21)c1cccnc1Cl (centres unmarked) [Compound 1078] | 3.06^[a] | –
8 | CCOC(=O)C(C#N)=C(NC1CCc2ccccc21)c1cn(C)nc1C(F)F (centres unmarked) [Compound 1079] | 3.42^[a] | –
9 | CCOC(=O)C(C#N)=C(NC1CC2CCC1C2)c1cccnc1Cl (centres unmarked) [Compound 1080] | – | Log P (pH 2.3): 3.59; Log P (pH 7.5): 3.57
10 | CCOC(=O)C(C#N)=C(NC1CC2CCC1C2)c1cccnc1Cl (centres unmarked) [Compound 1081] | 3.7^[a] | –
11 | CCOC(=O)C(C#N)=C(NC1CC2CCC1C2)c1cccnc1Cl (centres unmarked) [Compound 1082] | 3.74^[a] | –
12 | CCOC(=O)C(C#N)=C(NC1C2CCCCC21)c1cccnc1Cl (centres unmarked) [Compound 1083] | 3.73^[a] | –
13 | COC(=O)C(C#N)=C(NC1CCCC2CCCCC21)c1cccnc1Cl (centres unmarked) [Compound 1084] | 4.25^[a] | –
14 | CCOC(=O)C(C#N)=C(NC[Si](C)(C)C)c1cccnc1Cl [Compound 1085] | – | Log P (pH 2.3): 3.59; Log P (pH 7.5): 3.46
15 | CCOC(=O)C(C#N)=C(NC(C(=O)NC)c1ccccc1)c1cccnc1Cl (centres unmarked) [Compound 1087] | 2.43^[a] | –
16 | C#CC1(NC(=C(C#N)C(=O)OC)c2cccnc2Cl)CCCCC1 [Compound 1088] | 2.99^[a] | –
17 | CCOC(=O)C(C#N)=C(NC(C)(C)C#Cc1ccc(C#N)cc1)c1sccc1Br [Compound 1089] | 4.16^[a] | –
18 | CCOC(=O)C(C#N)=C(NC(C)(C)C#Cc1ccc(C#N)cc1)c1cn(C)nc1C(F)F [Compound 1090] | 3.37^[a] | –
19 | CCOC(=O)C(C#N)=C(NC(C)(C)C#Cc1ccc(C#N)cc1)c1sccc1C(F)(F)F [Compound 1091] | 4.24^[a] | –
20 | COC(=O)C(C#N)=C(NC(C)(C)C#Cc1ccc(C#N)cc1)c1sc(C)nc1C(F)(F)F [Compound 1092] | 3.78^[a] | –
21 | CCOC(=O)C(C#N)=C(NC(C)(C)C#Cc1ccc(C#N)cc1)c1sc(C)nc1C(F)(F)F [Compound 1093] | 4.04^[a] | –

Row | SMILES | Log P (pH 2.7) | also measured
22 | CCOC(=O)C(C#N)=C(NC(C)(C)C#Cc1ccc(C#N)cc1)c1ccsc1Br [Compound 1094] | 4.21^[a] | –
23 | COC(=O)C(C#N)=C(NC(C)(C)C#Cc1ccc(C)cc1)c1sc(C)nc1C(F)(F)F [Compound 1095] | 4.51^[a] | –
24 | CCOC(=O)C(C#N)=C(NC(C)(C)C#Cc1ccc(C)cc1)c1sccc1Br [Compound 1096] | 5.05^[a] | –
25 | CCOC(=O)C(C#N)=C(NC(C)(C)C#Cc1ccc(C)cc1)c1cn(C)nc1C(F)F [Compound 1097] | 4.11^[a] | –
26 | CCOC(=O)C(C#N)=C(NC(C)(C)C#Cc1ccc(C)cc1)c1sc(C)nc1C(F)(F)F [Compound 1098] | 4.92^[a] | –
27 | CCOC(=O)C(C#N)=C(NC(C)(C)C#CCOC)c1sccc1C(F)(F)F [Compound 1099] | 3.55^[a] | –
28 | COCC#CC(C)(C)NC(=C(C#N)C(=O)OC)c1sc(C)nc1C(F)(F)F [Compound 1100] | 3.06^[a] | –
29 | CCOC(=O)C(C#N)=C(NC(C)(C)C#CCOC)c1cn(C)nc1C(F)F [Compound 1101] | 2.73^[a] | –
30 | CCOC(=O)C(C#N)=C(NC(C)(C)C#CCOC)c1sc(C)nc1C(F)(F)F [Compound 1102] | 3.42^[a] | –
31 | CCOC(=O)C(C#N)=C(NC(C)(C)C=C(Cl)Cl)c1sccc1C(F)(F)F [Compound 1103] | 4.26^[a] | –
32 | COC(=O)C(C#N)=C(NC(C)(C)C=C(Cl)Cl)c1sc(C)nc1C(F)(F)F [Compound 1104] | 3.73^[a] | –
33 | CCOC(=O)C(C#N)=C(NC(C)(C)C=C(Cl)Cl)c1sccc1Br [Compound 1105] | 4.21^[a] | –
34 | CCOC(=O)C(C#N)=C(NC(C)(C)C=C(Cl)Cl)c1cn(C)nc1C(F)F [Compound 1106] | 3.31^[a] | –
35 | CCOC(=O)C(C#N)=C(NC(C)COS(C)(=O)=O)c1cccnc1Cl (centres unmarked) [Compound 1107] | – | Log P (pH 7.5): 2.17
36 | CCOC(=O)C(C#N)=C(NC(C)CSC#N)c1cccnc1Cl (centres unmarked) [Compound 1109] | – | Log P (pH 7.5): 2.35
37 | CCOC(=O)C(C#N)=C(NC(C)CON=C(C)c1ccccc1)c1cccnc1Cl (centres unmarked) [Compound 1111] | 3.96^[a] | –
38 | CCOC(=O)C(C#N)=C(NC(C)CON=C(C)c1ccccc1)c1cn(C)nc1C(F)F (centres unmarked) [Compound 1112] | 3.83^[a] | –
39 | COC(=O)C(C#N)=C(NC1(C(F)(F)F)CCCCC1)c1cccnc1Cl [Compound 1113] | 2.99^[a] | –
40 | CCOC(=O)C(C#N)=C(NC(C)C1=NOCCO1)c1cccnc1Cl (centres unmarked) [Compound 1117] | 2.11^[a] | –
41 | CCNC(=O)C(C#N)=C(NC(C)c1ccncn1)c1cccnc1Cl (centres unmarked) [Compound 1118] | 1.62^[a] | –
42 | CC#CC(C)NC(=C(C#N)C(=O)NCC)c1cccnc1Cl (centres unmarked) [Compound 1119] | 2.5^[a] | –
